We go through two molecules from paper PMC10707468, “Pharmacokinetics of Novel Dopamine Transporter Inhibitor CE-123 and Modafinil with a Focus on Central Nervous System Distribution” (International Journal of Molecular Sciences, 2023).

A short description of the data set: NeuroPK parameters by Combinatory Mapping Approach. In kind it is in vivo. As to conditions: rat; for concentration at 4 h / Kp uu at 4 h: Sprague-Dawley, intravenous, 20 mg/kg; for concentration at 4 h: brain interstitial fluid, steady state, Equation (6), read-out: Unbound-drug concentration in brain interstitial fluid, Cu,brainISF; for Kp uu at 4 h: extent of BBB transport, Equation (4), read-out: Unbound brain-to-plasma concentration ratio, Kp,uu,brain; for Kp uu: brain slices (Vu,brain) and brain homogenate (fu,brain), Equation (5), Vu,brain·fu,brain, read-out: Unbound intracellular-to-extracellular (interstitial) concentration ratio, Kp,uu,cell; for Kp,uu at the blood–spinal cord barrier (BSCB): spinal-cord-to-plasma unbound ratio. An excerpt:
The neuropharmacokinetic (neuroPK) parameters of the novel DAT inhibitor as well as modafinil have so been far assessed based on the total drug concentration in the plasma and the entire brain, usually at a single time point in a non-dedicated PK study. Yet, the total brain-to-plasma concentration ratio (Kp,brain) is just one of the neuroPK parameters with a limited use for characterization of the extent of BBB transport. According to the Free Drug Theory, the concentration of unbound (free) drugs, particularly at a site of action like the brain, governs the pharmacological effect(s), emphasizing the significance of unbound drug concentrations in distribution processes. To this end, the unbound brain-to-plasma concentration ratio, Kp,uu,brain, is the key neuroPK parameter to obtain for the assessment of the extent of BBB transport. With the Combinatory Mapping Approach (CMA), evaluation of the neuroPK parameters of unbound drugs can be obtained in a more high-throughput mode, which makes it useful for CNS drug discovery. The CMA employs several in vivo and in vitro methods to provide a comprehensive assessment of drug properties concerning BBB transport and intra-brain distribution. In an in vivo neuroPK study, the total concentrations of drugs in the brain and plasma are determined at the steady state, which is pivotal for assessing Kp,brain (Figure 1(A1)). In parallel, in vitro investigations involve the determination of unbound fractions of drugs in the plasma (fu,plasma) and brain tissue binding properties (fu,brain) using equilibrium dialysis and the brain slice method (Vu,brain) (Figure 1(B1,C1)). Finally, a combination of these acquired parameters enables the estimation of Kp,uu,brain and the unbound drug cell partitioning coefficient (Kp,uu,cell). Kp,uu,brain represents the ratio of brain interstitial fluid (ISF) to the plasma unbound drug concentrations at the steady state, providing a quantitative description of the net BBB drug transport. This parameter relies on three compound-specific parameters, Kp,brain, Vu,brain, and fu,plasma. […] Kp,uu,cell represents the steady-state ratio of intracellular to extracellular unbound drug concentrations, describing the drug transport across the cellular membrane.
The unbound brain-to-plasma concentration ratio, Kp,uu,brain, was calculated by using the three compound-specific parameters: Kp,brain, Vu,brain, and fu,plasma:(4) Kp,uu,brain=Kp,brain/Vu,brain·fu,plasma
The unbound intracellular-to-extracellular (interstitial) concentration ratio, Kp,uu,cell, was estimated by using the Vu,brain and fu,brain parameters:(5) Kp,uu,cell=Vu,brain·fu,brain
Due to the multiparameter character of Kp,uu,brain and Kp,uu,cell assessment (Equations (4) and (5)), the estimation of variability around the mean values was calculated using an error propagation method as described in Loryan et al. (2017).
The Kp,uu,brain values were further used to calculate the unbound drug concentration in the brain interstitial fluid Cu,brain,ISF, according to Loryan et al. (2014):(6) Cu,brain,ISF=Kp,uu,brain·Cu,plasma

Each structure is given as a SMILES string. Where two headings read alike, the source gives them in different places.

Turning to `[O-][S@@+](Cc1cncs1)C(c1ccccc1)c1ccccc1` [S-CE-123], the concentration at 4 h was 386 nM; the Kp uu at 4 h was 0.46 ± 0.032; the “fold difference in Kp,uu,brain, S-CE-123 vs R-modafinil” value is given as “ca. 5 fold”; the Kp uu amounted to 0.18 ± 0.09. For the same molecule, the “Kp,uu at the blood–spinal cord barrier (BSCB)” value was “closer to unity”. Also, the Kp uu at 4 h (brain) was 0.5.

In the case of `NC(=O)C[S@@+]([O-])C(c1ccccc1)c1ccccc1` [R-modafinil, reference compound], the concentration at 4 h came to 282 nM, the Kp uu at 4 h came out at 0.097 ± 0.034, the Kp uu is 0.85 ± 0.6 and the “Kp,uu at the blood–spinal cord barrier (BSCB)” value is recorded as “dominating net active efflux”. In addition, under “brain”, the Kp uu at 4 h stood at 0.1.
